{
  "source": "patent US20090156517A1",
  "about": "“STABLE PHARMACEUTICAL COMPOSITIONS OF AMINOGLYCOSIDE ANTIBIOTICS, ION-CHELATING AGENTS, AND BUFFERS” (priority 2006, published 2009)",
  "assay": "Amounts of antibiotic components in the solution over time (reverse-phase LC/UV for β-lactams and β-lactamase inhibitors, HPLC/evaporation-light-scattering for aminoglycosides)",
  "format": "physicochemical",
  "experimental": "The amounts of β-lactam antibiotics and β-lactamase inhibitor were determined using C18 reverse-phase LC and UV-VIS detector (Tianjin […] Co., Ltd., analysis method No. HM-K-03). The content of aminoglycoside antibiotics was measured using reverse-phase HPLC and evaporation-light-scattering detector (Tianjin […] Co., Ltd., analysis method No. HM-K-08). […] The relative amount of each antibiotic component in the composition at each time point was expressed as peak area ratio with respect to the corresponding peak area of an external standard.",
  "key": {"[1]": {"conditions": "Example 14: cefoperazone sodium/tazobactam sodium solution pH 6.75, disodium EDTA and amikacin sulfate added, room temperature, 0 h"}, "[2]": {"conditions": "Example 14: cefoperazone sodium/tazobactam sodium solution pH 6.75, disodium EDTA and amikacin sulfate added, room temperature, 1 h"}, "[3]": {"conditions": "Example 14: cefoperazone sodium/tazobactam sodium solution pH 6.75, disodium EDTA and amikacin sulfate added, room temperature, 2 h"}, "[4]": {"conditions": "Example 14: cefoperazone sodium/tazobactam sodium solution pH 6.75, disodium EDTA and amikacin sulfate added, room temperature, 4 h"}, "[5]": {"conditions": "Example 14: cefoperazone sodium/tazobactam sodium solution pH 6.75, disodium EDTA and amikacin sulfate added, room temperature, 6 h"}, "[6]": {"conditions": "Example 14: cefoperazone sodium/tazobactam sodium solution pH 6.75, disodium EDTA and amikacin sulfate added, room temperature, 8 h"}, "[7]": {"conditions": "Example 5 solution (cefoperazone sodium, sulbactam sodium, gentamicin, disodium EDTA, sodium citrate pH 6.75), room temperature, 0 h"}, "[8]": {"conditions": "Example 5 solution (cefoperazone sodium, sulbactam sodium, gentamicin, disodium EDTA, sodium citrate pH 6.75), room temperature, 1 h"}, "[9]": {"conditions": "Example 5 solution (cefoperazone sodium, sulbactam sodium, gentamicin, disodium EDTA, sodium citrate pH 6.75), room temperature, 2 h"}, "[10]": {"conditions": "Example 5 solution (cefoperazone sodium, sulbactam sodium, gentamicin, disodium EDTA, sodium citrate pH 6.75), room temperature, 4 h"}},
  "data": [
    {"molecule": "C[C@]1(Cn2ccnn2)[C@H](C(=O)O)N2C(=O)C[C@H]2S1(=O)=O", "note": "[Tazobactam sodium, tazobactam sodium]", "values": [
      {"measurement": "Amount of component, percentage of amount at initial time", "setting": "Example 8 solution (ceftriaxone sodium, tazobactam sodium, gentamicin sulfate, sodium citrate pH 6.75), room temperature, 0 h", "result": 102.2, "unit": "%"},
      {"measurement": "Amount of component, percentage of amount at initial time", "setting": "Example 8 solution (ceftriaxone sodium, tazobactam sodium, gentamicin sulfate, sodium citrate pH 6.75), room temperature, 1 h", "result": 97.53, "unit": "%"},
      {"measurement": "Amount of component, percentage of amount at initial time", "setting": "Example 8 solution (ceftriaxone sodium, tazobactam sodium, gentamicin sulfate, sodium citrate pH 6.75), room temperature, 2 h", "result": 94.16, "unit": "%"},
      {"measurement": "Amount of component, percentage of amount at initial time", "setting": "Example 8 solution (ceftriaxone sodium, tazobactam sodium, gentamicin sulfate, sodium citrate pH 6.75), room temperature, 4 h", "result": 94.58, "unit": "%"},
      {"measurement": "Amount of component, percentage of amount at initial time", "setting": "Example 8 solution (ceftriaxone sodium, tazobactam sodium, gentamicin sulfate, sodium citrate pH 6.75), room temperature, 6 h", "result": 95.45, "unit": "%"},
      {"measurement": "Amount of component, percentage of amount at initial time", "setting": "Example 8 solution (ceftriaxone sodium, tazobactam sodium, gentamicin sulfate, sodium citrate pH 6.75), room temperature, 8 h", "result": 94.44, "unit": "%"},
      {"measurement": "Amount of component, percentage of amount at initial time", "setting": "[1]", "result": 98.5, "unit": "%"},
      {"measurement": "Amount of component, percentage of amount at initial time", "setting": "[2]", "result": 98.7, "unit": "%"},
      {"measurement": "Amount of component, percentage of amount at initial time", "setting": "[3]", "result": 98.2, "unit": "%"},
      {"measurement": "Amount of component, percentage of amount at initial time", "setting": "[4]", "result": 95.6, "unit": "%"},
      {"measurement": "Amount of component, percentage of amount at initial time", "setting": "[5]", "result": 94.0, "unit": "%"},
      {"measurement": "Amount of component, percentage of amount at initial time", "setting": "[6]", "result": 96.1, "unit": "%"}
    ]},
    {"molecule": "gentamicin", "values": [
      {"measurement": "Amount of component, percentage of amount at initial time", "setting": "[7]", "result": 102.1, "unit": "%"},
      {"measurement": "Amount of component, percentage of amount at initial time", "setting": "[8]", "result": 104.6, "unit": "%"},
      {"measurement": "Amount of component, percentage of amount at initial time", "setting": "[9]", "result": 96.51, "unit": "%"},
      {"measurement": "Amount of component, percentage of amount at initial time", "setting": "[10]", "result": 100.4, "unit": "%"}
    ]},
    {"molecule": "CCN1CCN(C(=O)N[C@@H](C(=O)N[C@@H]2C(=O)N3C(C(=O)O)=C(CSc4nnnn4C)CS[C@H]23)c2ccc(O)cc2)C(=O)C1=O", "note": "[Cefoperazone sodium, cefoperazone sodium]", "values": [
      {"measurement": "Amount of component, percentage of amount at initial time", "setting": "Example 4 solution (cefoperazone sodium, sulbactam sodium, gentamicin, sodium citrate pH 6.75, no EDTA), room temperature, 0 h", "result": 101.4, "unit": "%"},
      {"measurement": "Amount of component, percentage of amount at initial time", "setting": "Example 4 solution (cefoperazone sodium, sulbactam sodium, gentamicin, sodium citrate pH 6.75, no EDTA), room temperature, 1 h", "result": 98.66, "unit": "%"},
      {"measurement": "Amount of component, percentage of amount at initial time", "setting": "Example 4 solution (cefoperazone sodium, sulbactam sodium, gentamicin, sodium citrate pH 6.75, no EDTA), room temperature, 2 h", "result": 98.79, "unit": "%"},
      {"measurement": "Amount of component, percentage of amount at initial time", "setting": "Example 4 solution (cefoperazone sodium, sulbactam sodium, gentamicin, sodium citrate pH 6.75, no EDTA), room temperature, 4 h", "result": 101.5, "unit": "%"},
      {"measurement": "Amount of component, percentage of amount at initial time", "setting": "Example 4 solution (cefoperazone sodium, sulbactam sodium, gentamicin, sodium citrate pH 6.75, no EDTA), room temperature, 6 h", "result": 107.4, "unit": "%"},
      {"measurement": "Amount of component, percentage of amount at initial time", "setting": "[7]", "result": 101.4, "unit": "%"},
      {"measurement": "Amount of component, percentage of amount at initial time", "setting": "[8]", "result": 98.66, "unit": "%"},
      {"measurement": "Amount of component, percentage of amount at initial time", "setting": "[9]", "result": 98.79, "unit": "%"},
      {"measurement": "Amount of component, percentage of amount at initial time", "setting": "[10]", "result": 101.5, "unit": "%"},
      {"measurement": "Amount of component, percentage of amount at initial time", "setting": "Example 5 solution (cefoperazone sodium, sulbactam sodium, gentamicin, disodium EDTA, sodium citrate pH 6.75), room temperature, 6 h", "result": 107.4, "unit": "%"},
      {"measurement": "Amount of component, percentage of amount at initial time", "setting": "Example 6 solution (cefoperazone sodium, sulbactam sodium, etimicin sulfate, disodium EDTA, sodium citrate pH 6.5), room temperature, 0 h", "result": 110.4, "unit": "%"},
      {"measurement": "Amount of component, percentage of amount at initial time", "setting": "Example 6 solution (cefoperazone sodium, sulbactam sodium, etimicin sulfate, disodium EDTA, sodium citrate pH 6.5), room temperature, 1 h", "result": 99.48, "unit": "%"},
      {"measurement": "Amount of component, percentage of amount at initial time", "setting": "Example 6 solution (cefoperazone sodium, sulbactam sodium, etimicin sulfate, disodium EDTA, sodium citrate pH 6.5), room temperature, 2 h", "result": 101.3, "unit": "%"},
      {"measurement": "Amount of component, percentage of amount at initial time", "setting": "Example 6 solution (cefoperazone sodium, sulbactam sodium, etimicin sulfate, disodium EDTA, sodium citrate pH 6.5), room temperature, 4 h", "result": 98.66, "unit": "%"},
      {"measurement": "Amount of component, percentage of amount at initial time", "setting": "Example 6 solution (cefoperazone sodium, sulbactam sodium, etimicin sulfate, disodium EDTA, sodium citrate pH 6.5), room temperature, 6 h", "result": 98.02, "unit": "%"},
      {"measurement": "Amount of component, percentage of amount at initial time", "setting": "Example 6 solution (cefoperazone sodium, sulbactam sodium, etimicin sulfate, disodium EDTA, sodium citrate pH 6.5), room temperature, 8 h", "result": 99.30, "unit": "%"},
      {"measurement": "Amount of component, percentage of amount at initial time", "setting": "[1]", "result": 100.2, "unit": "%"},
      {"measurement": "Amount of component, percentage of amount at initial time", "setting": "[2]", "result": 99.0, "unit": "%"},
      {"measurement": "Amount of component, percentage of amount at initial time", "setting": "[3]", "result": 99.0, "unit": "%"},
      {"measurement": "Amount of component, percentage of amount at initial time", "setting": "[4]", "result": 96.2, "unit": "%"},
      {"measurement": "Amount of component, percentage of amount at initial time", "setting": "[5]", "result": 94.5, "unit": "%"},
      {"measurement": "Amount of component, percentage of amount at initial time", "setting": "[6]", "result": 95.3, "unit": "%"},
      {"measurement": "Amount of component, percentage of amount at initial time", "setting": "Example 14: cefoperazone sodium/tazobactam sodium solution pH 6.75, etimicin sulfate added, 0 h", "result": 100.2, "unit": "%"},
      {"measurement": "Amount of component, percentage of amount at initial time", "setting": "Example 14: cefoperazone sodium/tazobactam sodium solution pH 6.75, etimicin sulfate added, 1 h", "result": 99.0, "unit": "%"},
      {"measurement": "Amount of component, percentage of amount at initial time", "setting": "Example 14: cefoperazone sodium/tazobactam sodium solution pH 6.75, etimicin sulfate added, 2 h", "result": 99.0, "unit": "%"},
      {"measurement": "Amount of component, percentage of amount at initial time", "setting": "Example 14: cefoperazone sodium/tazobactam sodium solution pH 6.75, etimicin sulfate added, 4 h", "result": 96.2, "unit": "%"},
      {"measurement": "Amount of component, percentage of amount at initial time", "setting": "Example 14: cefoperazone sodium/tazobactam sodium solution pH 6.75, etimicin sulfate added, 6 h", "result": 94.5, "unit": "%"},
      {"measurement": "Amount of component, percentage of amount at initial time", "setting": "Example 14: cefoperazone sodium/tazobactam sodium solution pH 6.75, etimicin sulfate added, 8 h", "result": 95.3, "unit": "%"}
    ]}
  ]
}
